One data set addresses T1, Cytochrome P450 2C8 (Homo sapiens, UniProt P10632).
T1 sequence (P10632 whole entry): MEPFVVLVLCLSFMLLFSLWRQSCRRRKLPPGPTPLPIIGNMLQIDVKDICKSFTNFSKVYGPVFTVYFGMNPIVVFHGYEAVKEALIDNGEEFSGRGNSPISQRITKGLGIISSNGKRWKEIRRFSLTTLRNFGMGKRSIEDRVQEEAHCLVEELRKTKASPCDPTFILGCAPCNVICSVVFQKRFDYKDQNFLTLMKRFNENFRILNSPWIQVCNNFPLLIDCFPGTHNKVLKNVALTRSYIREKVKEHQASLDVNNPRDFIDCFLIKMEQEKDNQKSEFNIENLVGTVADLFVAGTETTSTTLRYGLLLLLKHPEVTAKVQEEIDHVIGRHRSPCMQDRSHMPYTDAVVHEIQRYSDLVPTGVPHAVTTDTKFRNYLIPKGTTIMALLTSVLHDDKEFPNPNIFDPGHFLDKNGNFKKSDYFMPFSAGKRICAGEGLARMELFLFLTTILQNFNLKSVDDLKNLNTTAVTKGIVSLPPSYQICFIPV
The experiment in a line: Inhibition of CYP2C8 (unknown origin) expressed in baculovirus infected insect supersomes preincubated for 15 mins followed by addition of NADPH regenerating system and measured after 2 hrs by fluorescence based analysis. In kind it is ADME.

The target in a further data set is Cytochrome P450 3A4 (Homo sapiens, UniProt P08684). The experiment in a line: Inhibition of CYP3A4 (unknown origin) expressed in baculovirus infected insect supersomes preincubated for 15 mins followed by addition of NADPH regenerating system by fluorescence based analysis. In kind it is ADME.
Cytochrome P450 3A4, sequence (P08684 whole entry): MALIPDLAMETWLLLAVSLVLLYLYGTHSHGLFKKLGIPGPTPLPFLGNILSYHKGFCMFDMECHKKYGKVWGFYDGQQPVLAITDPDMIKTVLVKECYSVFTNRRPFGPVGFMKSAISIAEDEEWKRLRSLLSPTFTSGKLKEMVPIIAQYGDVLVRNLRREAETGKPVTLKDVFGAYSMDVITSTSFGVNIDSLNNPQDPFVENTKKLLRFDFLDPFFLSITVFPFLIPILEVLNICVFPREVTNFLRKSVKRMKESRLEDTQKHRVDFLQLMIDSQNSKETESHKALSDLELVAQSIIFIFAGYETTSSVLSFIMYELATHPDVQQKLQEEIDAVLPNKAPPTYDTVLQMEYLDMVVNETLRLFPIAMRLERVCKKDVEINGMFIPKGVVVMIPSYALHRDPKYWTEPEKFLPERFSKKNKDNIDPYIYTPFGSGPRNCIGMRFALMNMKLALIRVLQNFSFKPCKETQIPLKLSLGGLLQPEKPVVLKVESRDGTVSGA
Data set [1] is described as follows: Plasma concentration in mouse at 3 mg/kg, po measured after 6 hrs. The class given is ADME, organism-based.
The target of data set [2] is T2, Nuclear receptor ROR-gamma (Homo sapiens, UniProt P51449).
T2 sequence (P51449 whole entry): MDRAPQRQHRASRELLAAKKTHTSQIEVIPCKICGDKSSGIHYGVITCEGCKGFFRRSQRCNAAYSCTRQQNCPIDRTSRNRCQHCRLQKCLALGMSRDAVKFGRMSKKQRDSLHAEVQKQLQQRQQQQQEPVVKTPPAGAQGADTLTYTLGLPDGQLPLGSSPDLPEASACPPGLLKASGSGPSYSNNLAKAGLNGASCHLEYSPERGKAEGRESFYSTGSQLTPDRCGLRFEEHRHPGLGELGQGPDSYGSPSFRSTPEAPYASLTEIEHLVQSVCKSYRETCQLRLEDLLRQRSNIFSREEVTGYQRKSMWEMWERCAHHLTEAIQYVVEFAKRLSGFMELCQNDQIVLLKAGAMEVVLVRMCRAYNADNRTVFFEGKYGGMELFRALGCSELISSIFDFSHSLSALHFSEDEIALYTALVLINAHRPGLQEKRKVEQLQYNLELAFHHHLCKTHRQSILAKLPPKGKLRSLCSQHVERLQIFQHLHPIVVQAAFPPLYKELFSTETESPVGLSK
Kind of data set: Antagonist activity at human RORgammaT co-expressed with Gal4-luciferase reporter in human Jurkat cells incubated for 18 hrs by Steady-Glo luciferase reporter based luminescence analysis. In kind it is cell-based.

Data set [3] addresses T3, Peroxisome proliferator-activated receptor alpha (Homo sapiens, UniProt Q07869).
T3 sequence (Q07869 whole entry): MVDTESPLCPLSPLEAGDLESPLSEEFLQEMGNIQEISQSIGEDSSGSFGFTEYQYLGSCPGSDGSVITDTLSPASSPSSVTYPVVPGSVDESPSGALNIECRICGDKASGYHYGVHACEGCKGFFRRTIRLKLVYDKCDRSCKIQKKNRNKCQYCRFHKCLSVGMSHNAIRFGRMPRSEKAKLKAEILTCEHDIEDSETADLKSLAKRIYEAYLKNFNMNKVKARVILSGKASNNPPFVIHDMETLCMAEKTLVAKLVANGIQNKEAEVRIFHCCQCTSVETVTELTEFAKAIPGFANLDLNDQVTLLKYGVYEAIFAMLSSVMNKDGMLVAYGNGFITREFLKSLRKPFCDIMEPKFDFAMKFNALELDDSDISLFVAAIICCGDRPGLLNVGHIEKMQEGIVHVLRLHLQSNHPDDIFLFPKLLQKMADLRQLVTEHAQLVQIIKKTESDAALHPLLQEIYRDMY
The experiment in a line: Activation of PPARalpha LBD (unknown origin) co-expressed with Gal4UAS-luciferase reporter in HEK293 cells incubated for 24 hrs by Steady-Glo luciferase reporter gene based luminescence analysis. The class given is cell-based.

In data set [4] the target is T4, Oxysterols receptor LXR-beta (Homo sapiens, UniProt P55055).
T4 sequence (P55055 whole entry): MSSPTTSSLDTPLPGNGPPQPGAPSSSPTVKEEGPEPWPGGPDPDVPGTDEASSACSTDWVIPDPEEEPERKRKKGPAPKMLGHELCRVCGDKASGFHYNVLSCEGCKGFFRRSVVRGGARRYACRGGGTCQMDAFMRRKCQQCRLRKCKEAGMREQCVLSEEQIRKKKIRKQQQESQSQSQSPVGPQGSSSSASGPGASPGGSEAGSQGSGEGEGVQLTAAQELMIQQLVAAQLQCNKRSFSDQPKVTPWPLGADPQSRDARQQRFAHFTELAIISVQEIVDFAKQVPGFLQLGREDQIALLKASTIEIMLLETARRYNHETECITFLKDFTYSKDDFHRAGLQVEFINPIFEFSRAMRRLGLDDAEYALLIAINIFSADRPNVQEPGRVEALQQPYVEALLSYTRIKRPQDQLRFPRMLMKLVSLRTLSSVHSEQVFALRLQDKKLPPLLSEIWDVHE
Kind of data set: Activation of human LXRbeta co-expressed with TK-luciferase reporter in African green monkey CV-1 cells incubated for overnight by Steady-Glo luciferase reporter gene based luminescence analysis. The class given is cell-based.

In a further data set the target is T5, Estrogen receptor (Homo sapiens, UniProt P03372).
T5 sequence (P03372 whole entry): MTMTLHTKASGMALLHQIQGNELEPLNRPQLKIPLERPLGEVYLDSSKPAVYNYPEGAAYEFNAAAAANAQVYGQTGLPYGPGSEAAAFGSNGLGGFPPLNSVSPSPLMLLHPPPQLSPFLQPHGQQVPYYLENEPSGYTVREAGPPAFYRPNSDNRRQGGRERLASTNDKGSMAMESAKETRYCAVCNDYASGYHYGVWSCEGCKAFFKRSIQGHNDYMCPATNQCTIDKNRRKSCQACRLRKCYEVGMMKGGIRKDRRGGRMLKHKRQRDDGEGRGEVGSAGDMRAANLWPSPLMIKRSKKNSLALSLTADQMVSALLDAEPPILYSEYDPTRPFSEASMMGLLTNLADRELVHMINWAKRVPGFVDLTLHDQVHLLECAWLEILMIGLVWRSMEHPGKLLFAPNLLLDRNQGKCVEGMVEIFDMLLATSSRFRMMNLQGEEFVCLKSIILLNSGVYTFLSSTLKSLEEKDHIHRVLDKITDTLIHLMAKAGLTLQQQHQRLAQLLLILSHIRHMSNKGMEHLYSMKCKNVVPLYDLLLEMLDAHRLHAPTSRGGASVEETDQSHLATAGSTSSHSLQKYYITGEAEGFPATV
Kind of data set: Activation of estrogen receptor alpha (unknown origin) by fluorescence polarization based competition assay.

A short description of data set [5]: Plasma protein binding in C57B6 mouse assessed as unbound fraction at 1 mg/kg, iv. In kind it is ADME, organism-based. Conditions: in vivo.

Data on one molecule can be found in ChEMBL document CHEMBL4823324, “Discovery of BMS-986318, a Potent Nonbile Acid FXR Agonist for the Treatment of Nonalcoholic Steatohepatitis” (ACS Med Chem Lett, 2021).

As for `O=C(O)c1cc(C(F)(F)F)c2cc(N3CCC4(C=C(c5c(-c6c(Cl)cncc6Cl)noc5C5CC5)C4)CC3)ccc2n1`, the values for the IC50 (on Cytochrome P450 2C8; at Cytochrome P450 3A4; in data set [2]) were 4.2 µM, greater than 40 µM and greater than 40 µM, respectively. Moreover, in data set [1], the concentration at 6 h amounted to 37 nM. Further, the EC50 (in data set [3]; in data set [4]; at Estrogen receptor) was greater than 40 µM throughout. The Fu in data set [5] is on record as less than 0.01%.
